Test results taken from the supplement of paper PMC11061612.

What was measured:
[1] = system: EW-1 (Ewing's Sarcoma); test: Bliss excess, mean over the matrix (fraction); higher = more synergy
In short: (§1)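 Bliss excess equals the observed combination effect minus the expected value EA + EB − EA·EB, where EA and EB are the effects of each agent alone. Combination Emax is the second-highest inhibition within the matrix. Inhibition was scaled from CellTiter-Glo 2.0 luminescence, with 0 set by vehicle wells and 1 by blank wells, after 72 hours of two-drug dosing of cells plated in 1536-well plates.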

[2] = system: G-401 (Other Solid Carcinomas); test: as above
In short: as §1

[3] = system: HCC1500 (Breast Carcinoma); test: as above
In short: as §1

[4] = system: HCC2998 (Colorectal Carcinoma); test: as above
In short: as §1

[5] = system: Hey (Ovarian Carcinoma); test: as above
In short: as §1

[6] = system: KOPN-8 (B-Lymphoblastic Leukemia); test: as above
In short: as §1

[7] = system: LC-1-sq (Squamous Cell Lung Carcinoma); test: as above
In short: as §1

[8] = system: NCI-H1092 (Small Cell Lung Carcinoma); test: as above
In short: as §1

[9] = system: NCI-H1838 (Lung Adenocarcinoma); test: as above
In short: as §1

[10] = system: NCI-H2122 (Lung Adenocarcinoma); test: as above
In short: as §1

[11] = system: NCI-H650 (Lung Adenocarcinoma); test: as above
In short: as §1

[12] = system: COLO-679 (Melanoma); test: combination Emax (second highest fraction inhibited in the dose matrix, 72 h); higher = more inhibition; extreme values may be limits of the assay
In short: as §1

[13] = system: Ca-Ski (Cervical Carcinoma); test: as above
In short: as §1

[14] = system: MDA-MB-453 (Breast Carcinoma); test: as above
In short: as §1

[15] = system: ME-180 (Cervical Carcinoma); test: as above
In short: as §1

[16] = system: ML-2 (Acute Myeloid Leukemia); test: as above
In short: as §1

[17] = system: MOG-G-UVW (Low Grade Glioma); test: as above
In short: as §1

[18] = system: MOLT-4 (T-Lymphoblastic Leukemia); test: as above
In short: as §1

[19] = system: NCI-H1355 (Lung Adenocarcinoma); test: as above
In short: as §1

[20] = system: SW872 (Other Solid Carcinomas); test: as above
In short: as §1

Row | SMILES | Bliss excess [1] | Bliss excess [2] | Bliss excess [3] | Bliss excess [4] | Bliss excess [5] | Bliss excess [6] | Bliss excess [7] | Bliss excess [8] | Bliss excess [9] | Bliss excess [10] | Bliss excess [11] | combination Emax [12] | combination Emax [13] | combination Emax [14] | combination Emax [15] | combination Emax [16] | combination Emax [17] | combination Emax [18] | combination Emax [19] | combination Emax [20]
1 | CN(CCO)CC[C@H](CSc1ccccc1)Nc1ccc(S(=O)(=O)NC(=O)c2ccc(N3CCC([C@@H](O)c4ccccc4-c4ccc(Cl)cc4)CC3)cc2)cc1S(=O)(=O)C(F)(F)F [AZD4320] + CCN(CCO)CCCOc1ccc2c(Nc3cc(CC(=O)Nc4cccc(F)c4)[nH]n3)ncnc2c1 [AZD2811] (first compound max 1 µM, 7x7, partner max 1 µM) | 0.146 | 0.0082 | 0.0758 | 0.103 | -0.0022 | -0.0249 | 0.0294 | 0.0193 | 0.0003 | 0.0001 | -0.0457 | 0.275 | 0.907 | 0.324 | 0.624 | 1 | 0.509 | 1 | 0.239 | 0.142
2 | Cc1cc2ncnn2cc1Nc1ncc2c(n1)n(C1CCOCC1)c(=O)n2C [AZD7648] + O=C(c1cc(Cc2n[nH]c(=O)c3ccccc23)ccc1F)N1CCN(C(=O)C2CC2)CC1 [Olaparib] (first compound max 10 µM, 7x7, partner max 10 µM) | -0.0021 | -0.0308 | -0.0234 | -0.023 | -0.0088 | 0.0196 | -0.042 | -0.025 | -0.0808 | -0.0124 | -0.0247 | 0.128 | 0.142 | 0.281 | 0.154 | 0.419 | 0.316 | 0.233 | 0.297 | 0.11
3 | CN(CCO)CC[C@H](CSc1ccccc1)Nc1ccc(S(=O)(=O)NC(=O)c2ccc(N3CCC([C@@H](O)c4ccccc4-c4ccc(Cl)cc4)CC3)cc2)cc1S(=O)(=O)C(F)(F)F [AZD4320] + Cn1cnc2c(F)c(Nc3ccc(Br)cc3Cl)c(C(=O)NOCCO)cc21 [Selumetinib] (first compound max 1 µM, 7x7, partner max 3 µM) | 0.0387 | 0.0907 | 0.0166 | 0.0449 | 0.0771 | 0.0821 | 0.0514 | -0.0193 | 0.0376 | 0.0399 | 0.119 | 0.834 | 0.588 | 0.331 | 0.333 | 1 | 0.593 | 0.993 | 0.368 | 0.21
4 | CN(CCO)CC[C@H](CSc1ccccc1)Nc1ccc(S(=O)(=O)NC(=O)c2ccc(N3CCC([C@@H](O)c4ccccc4-c4ccc(Cl)cc4)CC3)cc2)cc1S(=O)(=O)C(F)(F)F [AZD4320] + Cc1cc2ncnn2cc1Nc1ncc2c(n1)n(C1CCOCC1)c(=O)n2C [AZD7648] (first compound max 1 µM, 7x7, partner max 10 µM) | 0.0033 | -0.0392 | -0.0027 | -0.0035 | -0.0728 | -0.0243 | -0.0093 | 0.005 | -0.0291 | -0.0074 | -0.021 | 0.142 | 0.208 | 0.285 | 0.26 | 0.966 | 0.191 | 0.98 | 0.269 | 0.113
5 | Cc1cc2ncnn2cc1Nc1ncc2c(n1)n(C1CCOCC1)c(=O)n2C [AZD7648] + COc1cc([C@@H]2c3cc4c(cc3[C@@H](O[C@@H]3O[C@@H]5CO[C@@H](C)O[C@H]5[C@H](O)[C@H]3O)[C@H]3COC(=O)[C@H]23)OCO4)cc(OC)c1O [Etoposide] (first compound max 10 µM, 7x7, partner max 10 µM) |  |  |  |  |  |  |  |  |  |  |  | 0.588 | 0.884 | 0.497 | 0.941 | 0.955 | 0.9 | 1 | 0.535 | 0.817
6 | Cc1cc2ncnn2cc1Nc1ncc2c(n1)n(C1CCOCC1)c(=O)n2C [AZD7648] + C[C@@H]1COCCN1C2=NC(=NC(=C2)C3(CC3)[S@](=N)(=O)C)C4=C5C=CNC5=NC=C4 [AZD6738] (first compound max 10 µM, 7x7, partner max 10 µM) | 0.024 | -0.0143 | 0.0489 | 0.0336 | 0.0229 | -0.0187 | 0.0311 | 0.0073 | -0.0062 | 0.0176 | 0.0048 | 0.687 | 0.581 | 0.832 | 0.442 | 0.968 | 0.795 | 1 | 0.661 | 0.496
7 | CN(CCO)CC[C@H](CSc1ccccc1)Nc1ccc(S(=O)(=O)NC(=O)c2ccc(N3CCC([C@@H](O)c4ccccc4-c4ccc(Cl)cc4)CC3)cc2)cc1S(=O)(=O)C(F)(F)F [AZD4320] + Nc1ccn([C@@H]2O[C@H](CO)[C@@H](O)C2(F)F)c(=O)n1 [Gemcitabine] (first compound max 1 µM, 7x7, partner max 0.3 µM) |  |  |  |  |  |  |  |  |  |  |  | 0.851 | 0.91 | 0.731 | 0.878 | 1 | 0.821 | 1 | 0.406 | 0.929
8 | C[C@@H](c1ccc2nccn2c1)n1nnc2ncc(-c3cnn(C)c3)nc21 [Savolitinib] + Cc1c2c(nn1C)CSCc1cc(n(C)n1)CSc1cc(c3ccccc3c1)OCCCc1c(C(=O)O)n(C)c3c-2c(Cl)ccc13 [AZD5991] (first compound max 1 µM, 7x7, partner max 1 µM) | -0.0001 | -0.0047 | -0.001 | -0.0463 | -0.0321 | 0.0789 | -0.0163 | -0.0875 | 0.0218 | -0.0513 | -0.045 | 0.163 | 0.212 | 0.261 | 0.114 | 1 | 0.343 | 0.491 | 0.207 | 0.201
9 | N#Cc1cnc(Nc2cc(NC[C@H]3CNCCO3)c(C(F)(F)F)cn2)cn1 [SRA737] + O=c1[nH]cc(F)c(=O)[nH]1 [5-Fluorouracil] (first compound max 10 µM, 7x7, partner max 20 µM) |  |  |  |  |  |  |  |  |  |  |  | 0.7 | 0.862 | 0.534 | 0.564 | 0.963 | 0.558 | 1 | 0.517 | 
10 | Cc1cc2ncnn2cc1Nc1ncc2c(n1)n(C1CCOCC1)c(=O)n2C [AZD7648] + CCN(CCO)CCCOc1ccc2c(Nc3cc(CC(=O)Nc4cccc(F)c4)[nH]n3)ncnc2c1 [AZD2811] (first compound max 10 µM, 7x7, partner max 1 µM) | 0.053 | -0.0176 | 0.0507 | -0.0065 | 0.113 | 0.0713 | 0.0569 | 0.0041 | -0.0491 | 0.0547 | -0.0147 | 0.203 | 0.349 | 0.362 | 0.389 | 0.832 | 0.686 | 0.965 | 0.519 | 0.271
11 | CN(CCO)CC[C@H](CSc1ccccc1)Nc1ccc(S(=O)(=O)NC(=O)c2ccc(N3CCC([C@@H](O)c4ccccc4-c4ccc(Cl)cc4)CC3)cc2)cc1S(=O)(=O)C(F)(F)F [AZD4320] + C1CN(CCC1(C(=O)N[C@@H](CCO)C2=CC=C(C=C2)Cl)N)C3=NC=NC4=C3C=CN4 [Capivasertib] (first compound max 1 µM, 7x7, partner max 3 µM) | -0.0009 | -0.0591 | -0.0178 | -0.0128 | -0.0385 | -0.0266 | -0.02 | -0.0476 | -0.0392 | -0.0234 | -0.0252 | 0.0975 | 0.766 | 0.596 | 0.507 | 0.984 | 0.355 | 1 | 0.239 | 0.166
12 | CN(CCO)CC[C@H](CSc1ccccc1)Nc1ccc(S(=O)(=O)NC(=O)c2ccc(N3CCC([C@@H](O)c4ccccc4-c4ccc(Cl)cc4)CC3)cc2)cc1S(=O)(=O)C(F)(F)F [AZD4320] + CC(=O)O[C@H]1C(=O)[C@@]2(C)[C@H]([C@H](OC(=O)c3ccccc3)[C@]3(O)C[C@H](OC(=O)[C@H](O)[C@@H](NC(=O)c4ccccc4)c4ccccc4)C(C)=C1C3(C)C)[C@]1(OC(C)=O)CO[C@@H]1C[C@@H]2O [Paclitaxel] (first compound max 1 µM, 7x7, partner max 3 µM) |  |  |  |  |  |  |  |  |  |  |  | 0.651 | 1 | 0.901 | 1 | 1 | 0.993 | 1 | 0.984 | 0.95
13 | N#Cc1cnc(Nc2cc(NC[C@H]3CNCCO3)c(C(F)(F)F)cn2)cn1 [SRA737] + Nc1ccn([C@@H]2O[C@H](CO)[C@@H](O)C2(F)F)c(=O)n1 [Gemcitabine] (first compound max 10 µM, 7x7, partner max 0.3 µM) |  |  |  |  |  |  |  |  |  |  |  | 0.828 | 0.815 | 0.542 | 0.9 | 1 | 0.986 | 1 | 0.644 | 0.905
14 | N#Cc1cnc(Nc2cc(NC[C@H]3CNCCO3)c(C(F)(F)F)cn2)cn1 [SRA737] + C=CCn1c(=O)c2cnc(Nc3ccc(N4CCN(C)CC4)cc3)nc2n1-c1cccc(C(C)(C)O)n1 [AZD1775] (first compound max 10 µM, partner max 1 µM) |  |  |  |  |  |  |  |  |  |  |  | 0.806 | 0.846 | 0.667 | 0.541 | 1 | 0.881 | 1 | 0.633 | 0.683
15 | N#Cc1cnc(Nc2cc(NC[C@H]3CNCCO3)c(C(F)(F)F)cn2)cn1 [SRA737] + CCc1c2c(nc3ccc(O)cc13)-c1cc3c(c(=O)n1C2)COC(=O)[C@]3(O)CC [SN-38] (first compound max 10 µM, 7x7, partner max 0.3 µM) |  |  |  |  |  |  |  |  |  |  |  | 0.723 | 0.992 | 0.719 | 0.95 | 1 | 0.925 | 1 | 0.599 | 0.947
